Test results as given in ChEMBL document CHEMBL3875185, “Structure-anticonvulsant activity studies in the group of (E)-N-cinnamoyl aminoalkanols derivatives monosubstituted in phenyl ring with 4-Cl, 4-CH3 or 2-CH3” (Bioorg Med Chem, 2017).
Active and inactive are the calls of the source. The rule behind the calls is not given here.

What was measured:
Mus musculus [1] = assay: Anticonvulsant activity in pentylenetetrazole induced seizure mouse model assessed as no observable episode of clonic convulsion of at least 5 secs at 300 mg/kg, ip measured at 0.5 hrs post dose; assay type: functional, organism-based
Rattus norvegicus [2] = assay: Neurotoxicity in Sprague-Dawley rat assessed as behavioral change at 30 mg/kg, po measured at 2 hrs post dose; assay type: toxicity, organism-based; conditions: in vivo
Rattus norvegicus [3] = assay: Neurotoxicity in Sprague-Dawley rat assessed as behavioral change at 30 mg/kg, po measured at 4 hrs post dose; assay type: toxicity, organism-based; conditions: in vivo
Mus musculus [4] = assay: Neurotoxicity in ip dosed mouse assessed as induction of motor impairment by measuring time to peak effect by rotarod method; assay type: toxicity, organism-based; conditions: in vivo
Mus musculus [5] = assay: Anticonvulsant activity in ip dosed 6-Hz induced seizure mouse model assessed as restoration of normal activity within 10 secs from stimulation at 32 mA; assay type: functional
Mus musculus [6] = assay: Anticonvulsant activity in ip dosed 6-Hz induced seizure mouse model assessed as restoration of normal activity within 10 secs from stimulation at 44 mA; assay type: functional
[7] = Neurotoxicity in ip dosed mouse; assay type: toxicity, organism-based; conditions: in vivo
[8] = Protection index, ratio of TD50 for neurotoxicity in ip dosed mouse to ED50 for ip dosed maximal electroshock induced seizure mouse model; assay type: toxicity, organism-based; conditions: in vivo, read-out: Ratio TD50/ED50
Rattus norvegicus [9] = assay: Anticonvulsant activity in ip dosed maximal electroshock induced seizure Sprague-Dawley rat model assessed as suppression in hindlimb tonic extension; assay type: functional
[10] = Neurotoxicity in ip dosed Sprague-Dawley rat assessed as behavioral change; assay type: toxicity, organism-based; conditions: in vivo
[11] = Protection index, ratio of TD50 for neurotoxicity in po dosed Sprague-Dawley rat model to ED50 for po dosed maximal electroshock induced seizure Sprague-Dawley rat model; assay type: toxicity, organism-based; conditions: in vivo, read-out: Ratio TD50/ED50
[12] = target: Adrenergic receptor alpha-2 (Rattus norvegicus) (UniProt P22086+P19328+P22909); assay: Displacement of [3H]RX 821002 from rat cerebral cortex alpha-2 adrenergic receptor at 100 uM measured after 60 mins by scintillation counting method relative to control
[13] = target: D(1A) dopamine receptor (Homo sapiens) (UniProt P21728); assay: Displacement of [3H]SCH 23390 from human recombinant dopamine D1 receptor expressed in CHO cells at 100 uM measured after 60 mins by scintillation counting method relative to control; assay type: cell-based
D(1A) dopamine receptor (Homo sapiens), sequence (P21728 whole entry): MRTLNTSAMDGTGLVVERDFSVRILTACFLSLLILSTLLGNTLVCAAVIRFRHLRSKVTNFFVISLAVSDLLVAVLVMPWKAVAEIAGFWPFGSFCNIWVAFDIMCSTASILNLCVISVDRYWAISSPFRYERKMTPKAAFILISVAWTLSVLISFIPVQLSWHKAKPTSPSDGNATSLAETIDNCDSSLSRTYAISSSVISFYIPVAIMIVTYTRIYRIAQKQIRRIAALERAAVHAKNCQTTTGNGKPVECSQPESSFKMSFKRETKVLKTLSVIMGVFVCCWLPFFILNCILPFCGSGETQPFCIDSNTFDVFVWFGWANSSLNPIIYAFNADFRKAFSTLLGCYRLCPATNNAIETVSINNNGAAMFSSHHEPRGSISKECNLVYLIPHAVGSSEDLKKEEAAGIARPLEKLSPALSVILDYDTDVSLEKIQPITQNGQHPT

CHO = assay: Displacement of [3H]methyl-spiperone from human recombinant dopamine D4.4 receptor expressed in CHO cells at 100 uM measured after 60 mins by scintillation counting method relative to control; assay type: cell-based
[14] = target: D(1B) dopamine receptor (Homo sapiens) (UniProt P21918); assay: Displacement of [3H]SCH 23390 from human recombinant D5 receptor expressed in GH4 cells at 100 uM measured after 60 mins by scintillation counting method relative to control; assay type: cell-based
D(1B) dopamine receptor (Homo sapiens), sequence (P21918 whole entry): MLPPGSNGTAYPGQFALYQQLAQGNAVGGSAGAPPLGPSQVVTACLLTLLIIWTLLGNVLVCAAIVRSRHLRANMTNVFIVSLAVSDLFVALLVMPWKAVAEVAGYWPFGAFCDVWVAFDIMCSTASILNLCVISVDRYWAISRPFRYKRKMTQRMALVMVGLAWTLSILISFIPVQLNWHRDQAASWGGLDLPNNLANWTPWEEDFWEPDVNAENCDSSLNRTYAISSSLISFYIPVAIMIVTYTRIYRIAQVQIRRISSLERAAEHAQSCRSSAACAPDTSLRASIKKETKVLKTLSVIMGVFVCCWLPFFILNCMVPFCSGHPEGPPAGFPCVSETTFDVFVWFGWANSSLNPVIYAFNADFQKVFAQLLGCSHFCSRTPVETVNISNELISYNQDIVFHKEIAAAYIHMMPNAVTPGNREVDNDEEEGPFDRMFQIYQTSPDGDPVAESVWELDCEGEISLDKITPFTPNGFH

[15] = target: T1, Endothelin-1 receptor (Homo sapiens) (UniProt P25101); assay: Displacement of [125I]endothelin-1 from human recombinant ETA receptor expressed in CHO cells at 100 uM measured after 120 mins by scintillation counting method relative to control; assay type: cell-based
T1 sequence (whole entry): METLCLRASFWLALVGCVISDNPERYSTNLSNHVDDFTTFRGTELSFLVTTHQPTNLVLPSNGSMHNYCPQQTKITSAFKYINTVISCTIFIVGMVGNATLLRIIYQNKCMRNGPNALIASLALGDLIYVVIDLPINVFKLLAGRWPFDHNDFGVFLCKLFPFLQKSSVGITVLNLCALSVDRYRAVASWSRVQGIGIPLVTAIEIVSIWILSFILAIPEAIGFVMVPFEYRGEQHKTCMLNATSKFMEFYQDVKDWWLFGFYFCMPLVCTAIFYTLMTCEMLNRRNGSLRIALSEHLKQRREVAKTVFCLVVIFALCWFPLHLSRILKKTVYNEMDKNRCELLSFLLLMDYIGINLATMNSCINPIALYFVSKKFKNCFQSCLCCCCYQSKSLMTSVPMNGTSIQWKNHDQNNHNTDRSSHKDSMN

[16] = target: Melatonin receptor type 1A (Homo sapiens) (UniProt P48039); assay: Displacement of [125I]2-iodomelatonin from human recombinant MT1 receptor expressed in CHO cells at 100 uM measured after 60 mins by scintillation counting method relative to control; assay type: cell-based
Melatonin receptor type 1A (Homo sapiens), sequence (P48039 whole entry): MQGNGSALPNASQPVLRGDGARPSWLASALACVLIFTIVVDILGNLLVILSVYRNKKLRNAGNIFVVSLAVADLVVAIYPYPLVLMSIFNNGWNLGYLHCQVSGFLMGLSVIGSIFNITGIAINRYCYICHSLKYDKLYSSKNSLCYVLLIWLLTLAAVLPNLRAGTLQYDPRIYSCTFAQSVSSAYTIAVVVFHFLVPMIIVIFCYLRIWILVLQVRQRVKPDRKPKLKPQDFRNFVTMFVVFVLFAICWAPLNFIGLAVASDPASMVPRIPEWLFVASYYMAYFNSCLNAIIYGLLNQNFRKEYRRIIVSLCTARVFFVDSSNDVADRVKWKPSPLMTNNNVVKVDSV

[17] = target: Muscarinic acetylcholine receptor M3 (Homo sapiens) (UniProt P20309); assay: Displacement of [3H]4-DAMP from human recombinant M3 receptor expressed in CHO cells at 100 uM measured after 60 mins by scintillation counting method relative to control; assay type: cell-based
Muscarinic acetylcholine receptor M3 (Homo sapiens), sequence (P20309 whole entry, looked up): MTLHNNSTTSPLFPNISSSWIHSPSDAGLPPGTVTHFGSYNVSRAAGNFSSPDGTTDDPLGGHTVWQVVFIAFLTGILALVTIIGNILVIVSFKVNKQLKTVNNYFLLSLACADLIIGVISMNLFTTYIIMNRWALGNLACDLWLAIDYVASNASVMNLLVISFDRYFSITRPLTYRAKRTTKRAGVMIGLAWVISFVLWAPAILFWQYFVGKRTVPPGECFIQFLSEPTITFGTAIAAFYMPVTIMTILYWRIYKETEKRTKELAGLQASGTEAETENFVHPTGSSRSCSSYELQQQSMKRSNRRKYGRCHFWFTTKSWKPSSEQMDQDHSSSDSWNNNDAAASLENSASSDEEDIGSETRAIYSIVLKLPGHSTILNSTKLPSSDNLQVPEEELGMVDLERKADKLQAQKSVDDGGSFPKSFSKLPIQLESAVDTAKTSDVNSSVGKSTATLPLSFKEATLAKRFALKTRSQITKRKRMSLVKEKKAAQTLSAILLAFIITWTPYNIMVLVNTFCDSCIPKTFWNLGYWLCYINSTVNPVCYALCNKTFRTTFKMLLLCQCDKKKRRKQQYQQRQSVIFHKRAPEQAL

[18] = target: Nociceptin receptor (Homo sapiens) (UniProt P41146); assay: Displacement of [3H]nociceptin from human recombinant NOP receptor expressed in HEK293 cells at 100 uM measured after 60 mins by scintillation counting method relative to control; assay type: cell-based
Nociceptin receptor (Homo sapiens), sequence (P41146 whole entry): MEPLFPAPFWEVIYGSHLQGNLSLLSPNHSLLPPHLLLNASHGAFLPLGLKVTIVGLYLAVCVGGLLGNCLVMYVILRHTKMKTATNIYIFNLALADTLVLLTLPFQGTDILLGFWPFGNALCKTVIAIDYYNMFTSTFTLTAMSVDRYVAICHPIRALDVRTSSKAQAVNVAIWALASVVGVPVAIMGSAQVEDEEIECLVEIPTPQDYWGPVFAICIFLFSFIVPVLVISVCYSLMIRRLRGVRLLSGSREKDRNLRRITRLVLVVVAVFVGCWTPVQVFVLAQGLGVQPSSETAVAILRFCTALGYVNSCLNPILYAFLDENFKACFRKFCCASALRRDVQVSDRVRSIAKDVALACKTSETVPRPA

[19] = target: 5-hydroxytryptamine receptor 1B (Rattus norvegicus) (UniProt P28564); assay: Displacement of [125I]CYP from rat cerebral cortex 5HT1B receptor at 100 uM measured after 120 mins by scintillation counting method relative to control
5-hydroxytryptamine receptor 1B (Rattus norvegicus), sequence (P28564 whole entry): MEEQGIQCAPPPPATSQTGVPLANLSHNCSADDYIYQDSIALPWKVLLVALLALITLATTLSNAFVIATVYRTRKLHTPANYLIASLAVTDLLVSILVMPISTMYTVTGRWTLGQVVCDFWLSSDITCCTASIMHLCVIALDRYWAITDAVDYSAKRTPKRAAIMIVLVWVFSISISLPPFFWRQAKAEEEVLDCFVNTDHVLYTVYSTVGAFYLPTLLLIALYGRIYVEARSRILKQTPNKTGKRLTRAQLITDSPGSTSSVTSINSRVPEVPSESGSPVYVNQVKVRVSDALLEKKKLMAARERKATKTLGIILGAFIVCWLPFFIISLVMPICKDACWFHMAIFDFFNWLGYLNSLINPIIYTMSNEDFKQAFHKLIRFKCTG

[20] = target: 5-hydroxytryptamine receptor 2A (Homo sapiens) (UniProt P28223); assay: Displacement of [3H]ketanserin from human recombinant 5HT2A receptor expressed in HEK293 cells at 100 uM measured after 60 mins by scintillation counting method relative to control; assay type: cell-based
5-hydroxytryptamine receptor 2A (Homo sapiens), sequence (P28223 whole entry): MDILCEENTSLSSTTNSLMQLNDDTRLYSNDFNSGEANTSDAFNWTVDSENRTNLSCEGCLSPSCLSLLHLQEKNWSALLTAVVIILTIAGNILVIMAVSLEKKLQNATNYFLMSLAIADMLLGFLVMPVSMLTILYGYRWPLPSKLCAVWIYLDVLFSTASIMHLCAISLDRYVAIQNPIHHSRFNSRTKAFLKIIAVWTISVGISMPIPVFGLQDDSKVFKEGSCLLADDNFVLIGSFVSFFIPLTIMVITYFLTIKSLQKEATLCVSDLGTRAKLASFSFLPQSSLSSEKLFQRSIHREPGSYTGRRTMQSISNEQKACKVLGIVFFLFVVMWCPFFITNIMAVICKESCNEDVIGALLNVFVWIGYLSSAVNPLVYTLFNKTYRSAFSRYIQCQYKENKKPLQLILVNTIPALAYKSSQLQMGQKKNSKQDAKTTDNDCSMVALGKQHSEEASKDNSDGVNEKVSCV

[21] = target: 5-hydroxytryptamine receptor 7 (Homo sapiens) (UniProt P34969); assay: Displacement of [3H]LSD from human recombinant 5HT7 receptor expressed in CHO cells at 100 uM measured after 120 mins by scintillation counting method relative to control; assay type: cell-based
5-hydroxytryptamine receptor 7 (Homo sapiens), sequence (P34969 whole entry): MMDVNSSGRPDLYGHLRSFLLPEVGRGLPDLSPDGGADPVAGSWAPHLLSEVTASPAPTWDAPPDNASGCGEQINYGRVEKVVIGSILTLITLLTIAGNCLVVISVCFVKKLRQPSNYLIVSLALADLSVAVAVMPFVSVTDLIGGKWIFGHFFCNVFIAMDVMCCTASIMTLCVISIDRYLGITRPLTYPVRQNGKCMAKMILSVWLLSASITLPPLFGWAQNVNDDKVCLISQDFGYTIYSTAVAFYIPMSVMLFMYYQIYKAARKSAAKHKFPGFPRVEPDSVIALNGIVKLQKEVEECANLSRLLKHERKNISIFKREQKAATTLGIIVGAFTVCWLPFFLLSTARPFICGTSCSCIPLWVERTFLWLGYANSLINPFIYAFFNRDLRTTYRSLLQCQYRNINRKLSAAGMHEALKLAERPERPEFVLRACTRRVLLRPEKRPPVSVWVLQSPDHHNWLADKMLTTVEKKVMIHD

[22] = target: T2, Vasoactive intestinal polypeptide receptor 1 (Homo sapiens) (UniProt P32241); assay: Displacement of [125I]VIP from human recombinant VPAC1 receptor expressed in CHO cells at 100 uM measured after 60 mins by scintillation counting method relative to control; assay type: cell-based
T2 sequence (whole entry): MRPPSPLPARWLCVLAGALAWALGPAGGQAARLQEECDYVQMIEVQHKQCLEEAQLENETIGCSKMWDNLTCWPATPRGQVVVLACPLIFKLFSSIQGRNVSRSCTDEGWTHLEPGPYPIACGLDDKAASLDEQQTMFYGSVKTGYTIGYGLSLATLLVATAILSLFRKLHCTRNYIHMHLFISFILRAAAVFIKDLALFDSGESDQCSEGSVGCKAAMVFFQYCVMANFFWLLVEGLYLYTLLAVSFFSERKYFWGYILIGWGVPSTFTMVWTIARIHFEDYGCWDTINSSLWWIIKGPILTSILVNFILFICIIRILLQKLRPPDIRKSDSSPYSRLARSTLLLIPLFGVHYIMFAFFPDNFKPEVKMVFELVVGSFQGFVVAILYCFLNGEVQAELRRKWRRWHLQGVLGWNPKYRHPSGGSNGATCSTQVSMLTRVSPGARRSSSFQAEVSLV

[23] = target: Sodium-dependent noradrenaline transporter (Homo sapiens) (UniProt P23975); assay: Displacement of [3H]nisoxetine from human recombinant norepinephrine transporter expressed in CHO cells at 100 uM measured after 120 mins by scintillation counting method relative to control; assay type: cell-based
Sodium-dependent noradrenaline transporter (Homo sapiens), sequence (P23975 whole entry): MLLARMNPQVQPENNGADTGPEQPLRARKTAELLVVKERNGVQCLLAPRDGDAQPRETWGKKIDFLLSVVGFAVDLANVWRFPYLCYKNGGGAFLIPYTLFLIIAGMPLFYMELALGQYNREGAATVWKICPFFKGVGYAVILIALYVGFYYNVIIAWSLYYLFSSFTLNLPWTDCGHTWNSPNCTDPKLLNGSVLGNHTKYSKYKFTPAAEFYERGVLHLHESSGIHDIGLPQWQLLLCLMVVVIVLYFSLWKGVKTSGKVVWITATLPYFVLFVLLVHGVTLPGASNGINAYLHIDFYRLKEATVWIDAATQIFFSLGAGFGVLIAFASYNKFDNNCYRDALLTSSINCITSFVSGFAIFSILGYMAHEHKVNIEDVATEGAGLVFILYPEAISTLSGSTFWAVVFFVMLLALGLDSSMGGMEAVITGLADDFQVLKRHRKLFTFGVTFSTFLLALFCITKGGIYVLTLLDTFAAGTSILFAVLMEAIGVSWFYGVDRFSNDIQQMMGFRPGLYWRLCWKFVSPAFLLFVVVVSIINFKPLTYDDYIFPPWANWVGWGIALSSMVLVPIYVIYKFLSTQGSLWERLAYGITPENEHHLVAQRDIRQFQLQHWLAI

[24] = target: Sodium-dependent dopamine transporter (Homo sapiens) (UniProt Q01959); assay: Displacement of [3H]BTCP from human recombinant dopamine transporter expressed in CHO cells at 100 uM measured after 120 mins by scintillation counting method relative to control; assay type: cell-based
Sodium-dependent dopamine transporter (Homo sapiens), sequence (Q01959 whole entry): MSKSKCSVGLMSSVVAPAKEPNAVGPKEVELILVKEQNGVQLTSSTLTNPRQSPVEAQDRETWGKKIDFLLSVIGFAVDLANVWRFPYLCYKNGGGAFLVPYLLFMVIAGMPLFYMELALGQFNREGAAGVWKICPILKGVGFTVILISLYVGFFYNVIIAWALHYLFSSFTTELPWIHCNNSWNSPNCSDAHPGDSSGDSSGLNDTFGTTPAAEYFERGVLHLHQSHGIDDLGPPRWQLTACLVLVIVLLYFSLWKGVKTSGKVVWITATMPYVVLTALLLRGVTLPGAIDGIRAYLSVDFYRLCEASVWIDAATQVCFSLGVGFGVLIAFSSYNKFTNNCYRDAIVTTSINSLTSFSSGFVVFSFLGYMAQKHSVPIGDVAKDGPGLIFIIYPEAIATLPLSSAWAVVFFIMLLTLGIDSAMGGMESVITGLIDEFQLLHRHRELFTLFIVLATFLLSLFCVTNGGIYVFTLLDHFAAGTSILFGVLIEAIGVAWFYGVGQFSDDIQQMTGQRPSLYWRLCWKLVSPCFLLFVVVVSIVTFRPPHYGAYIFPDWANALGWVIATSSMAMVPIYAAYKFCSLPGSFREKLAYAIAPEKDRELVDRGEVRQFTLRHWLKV

Compound | Activity (Mus musculus [1]) | Activity (Rattus norvegicus [2]) | Activity (Rattus norvegicus [3]) | Time (Mus musculus [4]) [h] | ED50 (Mus musculus [5]) [mg/kg] | ED50 (Mus musculus [6]) [mg/kg] | TD50 [7] [mg/kg] | selectivity ratio [8] | ED50 (Rattus norvegicus [9]) [mg/kg] | TD50 [10] [mg/kg] | selectivity ratio [11] | inhibition [12] [%] | inhibition [13] [%] | inhibition (CHO) [%] | inhibition [14] [%] | inhibition [15] [%] | inhibition [16] [%] | inhibition [17] [%] | inhibition [18] [%] | inhibition [19] [%] | other results
Cc1ccccc1/C=C/C(=O)N[C@@H](C)CO | Active | Non-Toxic | Non-Toxic | 0.5 | 52.6 | 42.3 | 150 | 3.53 | 16.3 | 103 | > 19.4 | 10.8 | 7.2 | 23.2 | 8 | -1 | 14.5 | -2 | 2.2 | 32.4 | inhibition [20]: 10.3%; inhibition [21]: 26.6%; inhibition [22]: 2%; inhibition [23]: 30.4%; inhibition [24]: 14.8%
CCC(CO)NC(=O)/C=C/c1ccc(Cl)cc1 (stereo not given) | Active | Non-Toxic | Non-Toxic | 0.25 | 57.6 | 92.9 | 196 | 3.65 | 21.2 | 79.5 | 5.92 | 34.8 | 18.5 | 30.6 | 12.3 | 0.3 | 4.3 | 1.5 | -4.4 | -1.5 | inhibition [20]: 19.3%; inhibition [21]: 16.2%; inhibition [22]: 4.8%; inhibition [23]: 61.7%; inhibition [24]: 29.5%
CC(O)CNC(=O)/C=C/c1ccc(Cl)cc1 (stereo not given) | Active | Non-Toxic | Non-Toxic | 0.25 | 42.3 | 51.3 | 180 | 3.24 | 41.9 | 69.8 | 6.47 | 25.1 | 14.9 | 28.2 | 13 | 9.3 | 10.6 | 2.9 | 1.7 | -3.2 | inhibition [20]: 12.2%; inhibition [21]: 43.5%; inhibition [22]: -0.4%; inhibition [23]: 48.1%; inhibition [24]: 16%
